Structures can show the parent of a compound that is named as a salt.
Experiments:
Type in all cases: physicochemical
[1] = Moisture content during tablet manufacturing (mixing and tableting); details: hydrochloride monohydrate; for Moisture content: % on the weight of compound 1a
Text: As a consequence, storage of compound 2a may be effected in normal conditions and no particular precautions are needed to avoid exposure to moisture. The titer of compound 2a, when it is stored in normal conditions, is therefore maintained at difference with compound 1a which, in the same conditions, may show different titles according to the water content. The hygroscopicity may also influence the drug title immediately after the manufacturing of tablets. In fact during the process of manufacturing the drug exposed at normal ambient conditions where it can take up moisture.

[2] = Water loss on desiccation under vacuum; details: between room temperature and 60° C. under vacuum, most preferably 40° C., 0.1 mm Hg, 24 hours; in words
Method: Compounds 2a and 2b may be prepared by dissolving the compounds 1a and 1b, as free base, in a hot aqueous solvent, preferably a hot aqueous alkanol, by adding the required amount of gaseous hydrogen chloride, filtering the resulting solution and letting it cool to room temperature. In a preferred embodiment of the process according to the invention, compound 2a is prepared by using, as an hot aqueous alkanol, hot 85% aqueous ethanol. The crystals of compound 2a may be collected by vacuum filtration and are washed with a small amount of aqueous ethanol. In a preferred embodiment of the process according to the invention, compound 2b is prepared by using, as an hot aqueous alkanol, hot 95% aqueous isopropanol. The crystals of compound 2b may be collected by vacuum filtration and are washed with a small amount of aqueous isopropanol. […] Water content may be measured by usual techniques such as the Karl Fischer test. Alternatively, compounds 2a and 2b may be conveniently prepared by dissolving the anhydrous form of compounds 1a and 1b, as hydrochloride, in hot aqueous ethanol, preferably 85% ethanol (respectively in hot aqueous isopropanol, preferably 95% isopropanol) and allowing to cool the solution at room temperature; crystals of compound 2 a (respectively 2b), separated from the cooled solution, are collected by vacuum filtration and manipulated as previously described. […]

[3] = Accelerated stability tests in tablets and capsules; details: for % degradation: tablets and capsules in PVC/PVDC blister with aluminium foil, hydrochloride monohydrate
Text: (§1) Drug stability in these final compositions may be measured in accelerated stability tests or in long term real time stability tests. In accelerated stability tests, the above pharmaceutical compositions are exposed at high temperatures at different degrees of relative humidity for a period of time. Such tests are considered to be indicative of the stability of the composition at normal conditions. In long term real time stability studies the final compositions are exposed to normal conditions of storage at ambient temperatures at different degrees of relative humidity.
(*)according to H. Leven Berger Pharm. Act. Helv. 50 (1975) 88-91 it is
equivalent to 2 years storage at room temperature. Tablets and capsules
are packaged in PVC/PVDC blister with aluminium foil.
(*)according to "Guidelines for stability studies for Human Drugs and
Biologics" (1987) (USA/FDA) it is equivalent to 2 years at room
temperature. Tablets and capsules are packaged in PVC/PVDC blister with […]

[4] = Moisture sorption/desorption studies (hygrostat, storage at different temperatures and relative humidity); details: for water content (Table V): 11.2% RH, % on the weight of compound 1a
Method: The determination of the sorption isotherms was carried out in a hygrostat.
At suitable intervals, the sample was weighed by means of a sample balance. The atmosphere in the hygrostat and therefore around the sample of compound 1a (1b) and 2a (2b) was conditioned and kept by a saturated solutions of a suitable salt:
Na Cl saturated solution 75.3% RH/25° C. 74.8% RH/37° C.
KNO3 saturated solution 93.7% RH/25° C. 90.0% RH/37° C.
At the end of the experiment, after completing the hysteresis, that is the adsorption--desorption cycle of humidity, the compound was assayed for the title and degradation products by TLC and HPLC, the physical state by DSC and water content by TGA.

[5] = Long-term real time stability tests in tablets and capsules; details: for % degradation: tablets and capsules in PVC/PVDC blister with aluminium foil, hydrochloride monohydrate
Text: as §1
Tablets and capsules are packaged in PVC/PVDC blister with aluminium foil

[6] = Milling studies (FRITSCH Pulverisette 14 Rotor Speed Mill)
Method: The milling process was performed by the FRITSCH Pulverisette 14 Rotor Speed Mill supplied with circular sieve stainless steel with trapezoidal 0.080 mm diameter openings. The samples were passed through the mill twice at 20.000 rpm motor speed. The sample is assayed for title and degradation products by TLC and HPLC, physical state by DSC, water content by TGA, particle size distribution by Mercury Instrusion Porosimetry. The mi 11ed compounds are formulated in capsules and tablets at very low dose level (0.5 mg) by direct mixing and direct compression manufacturing method, respectively.

SMILES: CN1C2CCC1CC(NC(=O)n1c(=O)[nH]c3ccccc31)C2 (stereo not drawn) [Compound 2a, Endo-2,3-dihydro-N-(8-methyl-8-azabicyclo[3.2.1]oct-3-yl)-2-oxo-1H-benzimidazole-1-carboxamide, hydrochloride monohydrate]
- Moisture content ([1]; Final (b), tableting): 4.90%
- Moisture content ([1]; Intermediate (a), mixing): 4.90%
- Moisture content ([1]; Start): 4.90%
- water content during manufacturing ([1]; mixing (a) and tableting (b) phases, in words): stable water content
- loss of water content on desiccation [2]: without any appreciable loss of water content
- % degradation ([3]; 1 month/55° C., 43200 min): 0.5%
- % degradation ([3]; 3 months/40° C.-75% RH, 129600 min): 0.5%
- % degradation ([3]; 3 months/55° C., 129600 min): 1.6%
- % degradation ([3]; 6 months/40° C.-75% RH, 259200 min): 1.0%
- stability in tablets and capsules ([3]; accelerated tests, in comparison with compounds 1a and 1b, in words): better stability
- water content in conditions of extreme dryness ([4]; 11 RH, 37° C., in words): not affected
- water content (Table V) ([4]; 37° C., 2 h): 5.32%
- water content (Table V) ([4]; 37° C., 4 h): 5.31%
- water content (Table V) ([4]; 37° C., 6 h): 5.31%
- water content (Table V) ([4]; 37° C., 21 days): 5.29%
- water content (Table V) ([4]; 37° C., time 0): 5.26%
- water content (Table III) ([4]; 37° C., 75% RH, 2 h, hydrochloride monohydrate): 5.8%
- water content (Table III) ([4]; 37° C., 75% RH, 4 h, hydrochloride monohydrate): 5.75%
- water content (Table III) ([4]; 37° C., 75% RH, 6 h, hydrochloride monohydrate): 5.79%
- water content (Table III) ([4]; 37° C., 75% RH, 1 d, hydrochloride monohydrate): 5.75%
- water content (Table III) ([4]; 37° C., 75% RH, 5 d, hydrochloride monohydrate): 5.8%
- water content (Table III) ([4]; 37° C., 75% RH, 9 d, hydrochloride monohydrate): 5.76%
- water content (Table III) ([4]; 37° C., 75% RH, 15 d, hydrochloride monohydrate): 5.8%
- water content (Table III) ([4]; 37° C., 94% RH, 2 h, hydrochloride monohydrate): 5.49%
- water content (Table III) ([4]; 37° C., 94% RH, 4 h, hydrochloride monohydrate): 5.47%
- water content (Table III) ([4]; 37° C., 94% RH, 6 h, hydrochloride monohydrate): 5.53%
- water content (Table III) ([4]; 37° C., 94% RH, 1 d, hydrochloride monohydrate): 5.5%
- water content (Table III) ([4]; 37° C., 94% RH, 5 d, hydrochloride monohydrate): 5.49%
- water content (Table III) ([4]; 37° C., 94% RH, 9 d, hydrochloride monohydrate): 5.48%
- water content (Table III) ([4]; 37° C., 94% RH, 15 d, hydrochloride monohydrate): 5.48%
- water content (Table III) ([4]; Room Temperature, 75% RH, 2 h, hydrochloride monohydrate): 5.46%
- water content (Table III) ([4]; Room Temperature, 75% RH, 4 h, hydrochloride monohydrate): 5.43%
- water content (Table III) ([4]; Room Temperature, 75% RH, 6 h, hydrochloride monohydrate): 5.37%
- water content (Table III) ([4]; Room Temperature, 75% RH, 1 d, hydrochloride monohydrate): 5.41%
- water content (Table III) ([4]; Room Temperature, 75% RH, 4 d, hydrochloride monohydrate): 5.42%
- water content (Table III) ([4]; Room Temperature, 75% RH, 8 d, hydrochloride monohydrate): 5.36%
- water content (Table III) ([4]; Room Temperature, 75% RH, 20 d, hydrochloride monohydrate): 5.41%
- water content (Table III) ([4]; Room Temperature, 94% RH, 2 h, hydrochloride monohydrate): 5.49%
- water content (Table III) ([4]; Room Temperature, 94% RH, 4 h, hydrochloride monohydrate): 5.53%
- water content (Table III) ([4]; Room Temperature, 94% RH, 6 h, hydrochloride monohydrate): 5.51%
- water content (Table III) ([4]; Room Temperature, 94% RH, 1 d, hydrochloride monohydrate): 5.49%
- water content (Table III) ([4]; Room Temperature, 94% RH, 4 d, hydrochloride monohydrate): 5.44%
- water content (Table III) ([4]; Room Temperature, 94% RH, 8 d, hydrochloride monohydrate): 5.48%
- water content (Table III) ([4]; Room Temperature, 94% RH, 20 d, hydrochloride monohydrate): 5.49%
- stability in condition of storage ([4]; different temperatures and relative humidity, in words): stable
- moisture absorption ([4]; different temperatures and relative humidity, in words, hydrochloride monohydrate): do not absorb moisture
- % degradation ([5]; 3 months/40° C., 129600 min): 0.4%
- % degradation ([5]; 6 months/30° C.-70% RH, 259200 min): 0.1%
- % degradation ([5]; 6 months/40° C., 259200 min): 0.6%
- stability in tablets and capsules ([5]; long term real time tests, in comparison with compounds 1a and 1b, in words): better stability
- particle size reduction (milling efficiency) ([6]; Mercury Porosimetry Analysis, in words): same rank order
- stability to milling ([6]; in words, in comparison with the anhydrous form): unexpected better stability to milling
- percentage of degradation products after milling ([6]; rotor speed of 20,000 rpm, hydrochloride monohydrate): 0.0%

From patent US5468758A, “Crystalline forms of endo-2,3-dihydro-N-(8-methyl)-8-azabicyclo[3.2.1]oct-3-yl)-2-oxo-1H-benz imidazole-1-carboxamides” (Boehringer Ingelheim Italia S.p.A., priority 1992, dated 1995)
